From patent publication US10597388B2, “Pyridazinone herbicides” (FMC CORPORATION, priority 2014, dated 2020)

Assays:
Experiment in all cases: Test E greenhouse herbicide test, pre- and postemergence
Format in all cases: in vivo
[1] = test system: Italian ryegrass (Lolium multiflorum)
Outline: (§1)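 Compounds in surfactant-containing solvent are applied to soil right after sowing (silt loam) and, in parallel, to 1- to 4-leaf plants in a peat-based medium. Weed control is scored visually on a 0 (none) to 100 (complete) scale at 14 to 21 d.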

[2] = test system: barnyardgrass (Echinochloa crus-galli)
Outline: as §1

[3] = test system: beggarticks (hairy beggarticks, Bidens pilosa)
Outline: as §1

[4] = test system: corn (Zea mays)
Outline: as §1

[5] = test system: crabgrass, Brazilian (Brazilian crabgrass, Digitaria horizontalis)
Outline: as §1

[6] = test system: crabgrass, large (large crabgrass, Digitaria sanguinalis); settings: Preemergence
Outline: as §1

[7] = test system: field bindweed (Convolvulus arvensis)
Outline: as §1

[8] = test system: foxtail, giant (giant foxtail, Setaria faberii); settings: Preemergence
Outline: as §1

[9] = test system: foxtail, green (green foxtail, Setaria viridis); settings: Preemergence
Outline: as §1

[10] = test system: horseweed (Conyza canadensis); settings: Postemergence
Outline: as §1

[11] = test system: kochia (Kochia scoparia)
Outline: as §1

[12] = test system: momingglory (Ipomoea coccinea); settings: Preemergence
Outline: as §1

[13] = test system: nutsedge, yellow (yellow nutsedge, Cyperus esculentus); settings: Preemergence
Outline: as §1

[14] = test system: panicum, fall (fall panicum, Panicum dichotomiflorum)
Outline: as §1

[15] = test system: pigweed, palmer (palmer pigweed, Amaranthus palmeri)
Outline: as §1

[16] = test system: ragweed (common ragweed, Ambrosia elatior)
Outline: as §1

[17] = test system: velvetleaf (Abutilon theophrasti); settings: Preemergence
Outline: as §1

[18] = 62 g ai/ha, Postemergence, scale 0 to 100 (0 no effect, 100 complete control)
[19] = 62 g ai/ha, Preemergence, scale 0 to 100 (0 no effect, 100 complete control)
[20] = 125 g ai/ha, Postemergence, scale 0 to 100 (0 no effect, 100 complete control)
[21] = 125 g ai/ha, Preemergence, scale 0 to 100 (0 no effect, 100 complete control)
[22] = 250 g ai/ha, Postemergence, scale 0 to 100 (0 no effect, 100 complete control)
[23] = Postemergence, 31 g ai/ha, visual, scale 0 no effect to 100 complete control
[24] = Preemergence, 31 g ai/ha, scale 0 to 100, 0 no effect, 100 complete control
[25] = Preemergence, 250 g ai/ha, visual, scale 0 no effect to 100 complete control
[26] = 62 g ai/ha, scale 0 to 100 (0 no effect, 100 complete control)
[27] = 125 g ai/ha, scale 0 to 100 (0 no effect, 100 complete control)
[28] = 31 g ai/ha, scale 0 to 100, 0 no effect, 100 complete control
[29] = 250 g ai/ha, visual, scale 0 no effect to 100 complete control

Cc1cc(C)c2sc(C)c(-c3c(OC(=O)OCCCl)c(C)nn(C)c3=O)c2c1 [Compound 85]
Plant response rating, Ryegrass, Italian [1, 18]: 60 | Plant response rating, Ryegrass, Italian [1, 19]: 80 | Plant response rating, Ryegrass, Italian [1, 20]: 75 | Plant response rating, Ryegrass, Italian [1, 21]: 95 | Plant response rating, Ryegrass, Italian [1, 22]: 80 | Plant response rating, Ryegrass, Italian [1, 23]: 50 | Plant response rating, Ryegrass, Italian [1, 24]: 80 | Plant response rating, Ryegrass, Italian [1, 25]: 100 | Plant response rating, Barnyardgrass [2, 18]: 30 | Plant response rating, Barnyardgrass [2, 19]: 0 | Plant response rating, Barnyardgrass [2, 20]: 20 | Plant response rating, Barnyardgrass [2, 21]: 30 | Plant response rating, Barnyardgrass [2, 22]: 30 | Plant response rating, Barnyardgrass [2, 23]: 20 | Plant response rating, Barnyardgrass [2, 24]: 0 | Plant response rating, Barnyardgrass [2, 25]: 35 | Plant response rating, Beggarticks [3, 18]: 100 | Plant response rating, Beggarticks [3, 19]: 100 | Plant response rating, Beggarticks [3, 20]: 100 | Plant response rating, Beggarticks [3, 21]: 100 | Plant response rating, Beggarticks [3, 22]: 100 | Plant response rating, Beggarticks [3, 23]: 90 | Plant response rating, Beggarticks [3, 24]: 90 | Plant response rating, Beggarticks [3, 25]: 100 | Plant response rating, Corn [4, 18]: 0 | Plant response rating, Corn [4, 19]: 0 | Plant response rating, Corn [4, 20]: 0 | Plant response rating, Corn [4, 21]: 0 | Plant response rating, Corn [4, 22]: 5 | Plant response rating, Corn [4, 23]: 0 | Plant response rating, Corn [4, 24]: 0 | Plant response rating, Corn [4, 25]: 0 | Plant response rating, Crabgrass, Brazil [5, 18]: 30 | Plant response rating, Crabgrass, Brazil [5, 19]: 50 | Plant response rating, Crabgrass, Brazil [5, 20]: 50 | Plant response rating, Crabgrass, Brazil [5, 21]: 80 | Plant response rating, Crabgrass, Brazil [5, 22]: 50 | Plant response rating, Crabgrass, Brazil [5, 23]: 15 | Plant response rating, Crabgrass, Brazil [5, 24]: 10 | Plant response rating, Crabgrass, Brazil [5, 25]: 90 | Plant response rating, Crabgrass, Large [6, 26]: 0 | Plant response rating, Crabgrass, Large [6, 27]: 0 | Plant response rating, Crabgrass, Large [6, 28]: 0 | Plant response rating, Crabgrass, Large [6, 29]: 25 | Plant response rating, Field Bindweed [7, 18]: 50 | Plant response rating, Field Bindweed [7, 19]: 5 | Plant response rating, Field Bindweed [7, 20]: 60 | Plant response rating, Field Bindweed [7, 21]: 20 | Plant response rating, Field Bindweed [7, 22]: 90 | Plant response rating, Field Bindweed [7, 23]: 50 | Plant response rating, Field Bindweed [7, 25]: 95 | Plant response rating, Foxtail, Giant [8, 26]: 65 | Plant response rating, Foxtail, Giant [8, 27]: 95 | Plant response rating, Foxtail, Giant [8, 28]: 15 | Plant response rating, Foxtail, Giant [8, 29]: 100 | Plant response rating, Foxtail, Green [9, 26]: 25 | Plant response rating, Foxtail, Green [9, 27]: 15 | Plant response rating, Foxtail, Green [9, 28]: 0 | Plant response rating, Foxtail, Green [9, 29]: 100 | Plant response rating, Horseweed [10, 26]: 85 | Plant response rating, Horseweed [10, 27]: 85 | Plant response rating, Horseweed ([10]; 250 g ai/ha, scale 0 to 100 (0 no effect, 100 complete control)): 90 | Plant response rating, Horseweed ([10]; 31 g ai/ha, visual, scale 0 no effect to 100 complete control): 60 | Plant response rating, Kochia [11, 18]: 70 | Plant response rating, Kochia [11, 19]: 0 | Plant response rating, Kochia [11, 20]: 80 | Plant response rating, Kochia [11, 21]: 0 | Plant response rating, Kochia [11, 22]: 80 | Plant response rating, Kochia [11, 23]: 60 | Plant response rating, Kochia [11, 24]: 0 | Plant response rating, Kochia [11, 25]: 98 | Plant response rating, Morningglory [12, 26]: 30 | Plant response rating, Morningglory [12, 27]: 50 | Plant response rating, Morningglory [12, 28]: 25 | Plant response rating, Morningglory [12, 29]: 100 | Plant response rating, Nutsedge, Yellow [13, 26]: 35 | Plant response rating, Nutsedge, Yellow [13, 27]: 35 | Plant response rating, Nutsedge, Yellow [13, 29]: 65 | Plant response rating, Panicum, Fall [14, 18]: 75 | Plant response rating, Panicum, Fall [14, 19]: 85 | Plant response rating, Panicum, Fall [14, 20]: 80 | Plant response rating, Panicum, Fall [14, 21]: 98 | Plant response rating, Panicum, Fall [14, 22]: 95 | Plant response rating, Panicum, Fall [14, 23]: 75 | Plant response rating, Panicum, Fall [14, 24]: 95 | Plant response rating, Panicum, Fall [14, 25]: 100 | Plant response rating, Pigweed, Palmer [15, 18]: 80 | Plant response rating, Pigweed, Palmer [15, 19]: 30 | Plant response rating, Pigweed, Palmer [15, 20]: 80 | Plant response rating, Pigweed, Palmer [15, 21]: 50 | Plant response rating, Pigweed, Palmer [15, 22]: 80 | Plant response rating, Pigweed, Palmer [15, 23]: 65 | Plant response rating, Pigweed, Palmer [15, 24]: 25 | Plant response rating, Pigweed, Palmer [15, 25]: 90 | Plant response rating, Ragweed [16, 18]: 50 | Plant response rating, Ragweed [16, 19]: 80 | Plant response rating, Ragweed [16, 20]: 60 | Plant response rating, Ragweed [16, 21]: 90 | Plant response rating, Ragweed [16, 22]: 85 | Plant response rating, Ragweed [16, 23]: 50 | Plant response rating, Ragweed [16, 24]: 60 | Plant response rating, Ragweed [16, 25]: 98 | Plant response rating, Velvetleaf [17, 26]: 30 | Plant response rating, Velvetleaf [17, 27]: 70 | Plant response rating, Velvetleaf [17, 28]: 0 | Plant response rating, Velvetleaf [17, 29]: 95
